The values that follow come from patent publication US6787569B1, “Therapeutic guanidines” (Cambridge NeuroScience, Inc., priority 1994, dated 2004).

Counter-ions that a name gives are not always drawn. Like-named read-outs stand apart in the source and are kept apart here.

Series [1] relates to audiogenic seizures in DBA/2 mice. Nature of the series: In vivo anticonvulsant activity in the DBA/2 mouse model (audiogenic seizures). The note with it: 30 minutes prior to auditory stimulus. The procedure: Compounds were tested for their effectiveness in preventing seizures in DBA/2 mice which have a unique sensitivity to auditory stimulation. Exposure to loud high-frequency sounds can trigger seizure activity in these animals. This sensitivity develops from postnatal day 12 and peaks around day 21 and slowly diminishes as the animals mature. The unusual response to auditory stimulation in this strain of mouse is believed to be due to a combination of early myelination (causing an unusually low excitatory threshold) and delayed development of inhibitory mechanisms. Glutamate, the predominant excitatory neurotransmitter, has been implicated in this response. Blockade of glutamate receptors of the NMDA and AMPA subtypes, prevents audiogenic seizures in these mice. Compounds that block the release of glutamate should similarly act to prevent seizure activity, and may be therapeutic in other neurologic disorders such as stroke, which also involves glutamate-mediated damage.
Mice were injected intraperitoneally with the compound specified in Table V below or with vehicle control, 30 minutes prior to being placed in a bell jar and turning on the auditory stimulus (12 KHz sine wave at 110-120 db). Administered doses are specified in Table V as milligram of compound per kilogram bodyweight of mouse. The auditory stimulus was left on for 60 seconds and mice reactions were timed and recorded.
Percentage inhibition was determined with reference to vehicle controls.

Series [2] addresses Type II neuronal voltage-activated sodium channels (Rattus norvegicus, UniProt P04775). Description: cell-based.
Series [3] deals with depolarization-induced 3H-glutamate release from brain nerve terminals. Description: Inhibition of 3H-glutamate release, high [K+] depolarization, rapid superfusion of synaptosomes. The format is biochemical. The note with it: rat brain synaptosomes; for % Inhibition of ^3H-Glu Rel @ 0.3 μM: 0.3 μM compound; for % Inhibition of ^3H-Glu Rel @ 1 μM: 1 μM compound; for % Inhibition of ^3H-Glu Rel @ 3 μM: 3 μM compound.

Series [4] has as its system veratridine-induced 3H-glutamate release from brain nerve terminals (voltage-activated presynaptic Na channels). Description: Inhibition of veratridine-induced 3H-glutamate release, rapid superfusion of synaptosomes. The note with it: 50 μM veratridine-induced release, rat brain synaptosomes; for % Inhibition of ^3H-Glu Rel @ 1 μM (*veratridine-induced glutamate release assay): 1 μM compound; for % Inhibition of ^3H-Glu Rel @ 3 μM (*veratridine-induced glutamate release assay): 3 μM compound. The format is biochemical, rat.

The mark [5] stands for this setting: veratridine (100 μM)-induced, tetrodotoxin-sensitive uptake, CHO cells expressing rat brain Type II Na channels, read-out: IC50, block of ^14C guanidinium uptake.

In general, IC50 refers to the concentration that gives 50% inhibition. As a reminder, the melting point is the temperature, or range, at which the solid turns liquid.

Chain of Type II neuronal voltage-activated sodium channels (P04775 whole entry, the tested form may be a part): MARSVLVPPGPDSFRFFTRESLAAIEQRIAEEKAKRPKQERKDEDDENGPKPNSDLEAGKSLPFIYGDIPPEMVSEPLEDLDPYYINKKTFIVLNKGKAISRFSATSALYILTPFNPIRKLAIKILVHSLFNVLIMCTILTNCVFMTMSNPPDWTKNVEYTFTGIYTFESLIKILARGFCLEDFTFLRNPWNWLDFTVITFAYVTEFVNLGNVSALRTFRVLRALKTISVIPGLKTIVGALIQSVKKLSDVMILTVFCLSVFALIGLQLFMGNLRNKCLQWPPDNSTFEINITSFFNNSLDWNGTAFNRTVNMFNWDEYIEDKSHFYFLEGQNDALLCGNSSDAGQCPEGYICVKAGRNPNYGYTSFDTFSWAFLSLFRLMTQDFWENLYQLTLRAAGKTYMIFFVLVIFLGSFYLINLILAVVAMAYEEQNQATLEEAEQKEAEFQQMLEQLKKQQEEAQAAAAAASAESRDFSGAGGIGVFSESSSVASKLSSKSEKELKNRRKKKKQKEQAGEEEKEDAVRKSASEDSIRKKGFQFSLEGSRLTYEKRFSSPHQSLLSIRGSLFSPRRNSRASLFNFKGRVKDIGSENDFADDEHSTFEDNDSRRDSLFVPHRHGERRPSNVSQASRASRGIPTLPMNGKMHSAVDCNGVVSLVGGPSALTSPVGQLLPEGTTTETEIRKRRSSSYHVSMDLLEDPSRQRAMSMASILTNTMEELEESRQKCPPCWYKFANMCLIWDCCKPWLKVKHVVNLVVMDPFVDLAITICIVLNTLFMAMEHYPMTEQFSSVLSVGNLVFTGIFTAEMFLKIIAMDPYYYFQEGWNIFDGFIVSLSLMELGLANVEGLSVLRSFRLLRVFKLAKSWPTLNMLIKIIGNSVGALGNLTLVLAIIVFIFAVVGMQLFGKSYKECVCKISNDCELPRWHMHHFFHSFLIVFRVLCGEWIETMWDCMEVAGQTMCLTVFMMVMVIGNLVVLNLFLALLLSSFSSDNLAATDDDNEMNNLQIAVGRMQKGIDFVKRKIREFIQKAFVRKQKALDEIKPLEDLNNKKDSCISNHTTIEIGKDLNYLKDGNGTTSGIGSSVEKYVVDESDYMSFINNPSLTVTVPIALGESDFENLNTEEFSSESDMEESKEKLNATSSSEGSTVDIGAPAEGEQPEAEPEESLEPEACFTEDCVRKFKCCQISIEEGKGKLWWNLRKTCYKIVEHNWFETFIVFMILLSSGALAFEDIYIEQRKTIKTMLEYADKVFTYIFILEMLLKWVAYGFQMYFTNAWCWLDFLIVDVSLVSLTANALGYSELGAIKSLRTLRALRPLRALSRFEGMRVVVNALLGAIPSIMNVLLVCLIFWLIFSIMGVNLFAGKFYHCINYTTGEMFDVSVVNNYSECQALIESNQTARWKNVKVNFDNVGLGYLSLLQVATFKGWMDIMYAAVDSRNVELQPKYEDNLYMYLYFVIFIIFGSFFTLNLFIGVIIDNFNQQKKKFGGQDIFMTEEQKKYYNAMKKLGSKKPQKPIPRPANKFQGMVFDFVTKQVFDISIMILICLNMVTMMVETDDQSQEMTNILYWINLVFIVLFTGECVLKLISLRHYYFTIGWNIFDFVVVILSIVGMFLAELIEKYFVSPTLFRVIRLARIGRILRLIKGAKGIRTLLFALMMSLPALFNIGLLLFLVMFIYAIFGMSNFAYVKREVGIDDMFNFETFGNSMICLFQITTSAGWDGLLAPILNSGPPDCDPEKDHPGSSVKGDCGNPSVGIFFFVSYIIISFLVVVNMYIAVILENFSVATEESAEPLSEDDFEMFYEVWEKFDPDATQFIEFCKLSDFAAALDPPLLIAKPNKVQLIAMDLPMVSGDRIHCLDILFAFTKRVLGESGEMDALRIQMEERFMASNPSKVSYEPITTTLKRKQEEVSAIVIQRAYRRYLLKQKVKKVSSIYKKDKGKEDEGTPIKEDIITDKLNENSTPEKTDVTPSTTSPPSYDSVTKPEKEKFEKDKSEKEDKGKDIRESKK

Regarding `Br.CCCCOc1ccc(NC(=N)Nc2ccc(OCCCC)cc2)cc1` [Example 137, N,N′-Bis(4-butoxyphenyl)guanidine.HBr], the “Audiogenic Response % Inhib.” value in series [1] (20 mg/kg intraperitoneally) stood at 60%; in series [1] (40 mg/kg intraperitoneally) it was 82%.

In the case of `N=C(Nc1ccc2ccccc2c1)NC1C2CC3CC(C2)CC1C3` (stereo not drawn) [Example 16, N-(2-Naphthyl)-N′-(2-adamantyl)guanidine.HCl], the IC50 in series [2] (setting [5]) was determined as 500 nM.

In the case of `CC(C)(C)c1ccc(NC(=N)Nc2cccc(COCc3ccccc3)c2)cc1.CS(=O)(=O)O` [Example 106, N-3-(Benzyloxymethyl)phenyl-N′-(4-tert-butylphenyl)guanidine.mesylate], in series [1] (40 mg/kg intraperitoneally), the “Audiogenic Response % Inhib.” value was 93%. For the same compound, the “% Inhibition of ^3H-Glu Rel @ 0.3 μM” value in series [3] is given as 48%.

On to `CC(CNC(=N)Nc1ccc2c3c(cccc13)CC2)c1ccccc1.Cl` (stereo not drawn) [Example 44, N-(5-Acenaphthyl)-N′-(2-methyl-2-phenylethyl)guanidine.HCl], for which, in series [4], the “% Inhibition of ^3H-Glu Rel @ 1 μM (*veratridine-induced glutamate release assay)” value is 43* % and the “% Inhibition of ^3H-Glu Rel @ 3 μM (*veratridine-induced glutamate release assay)” value is 71* %.

For `N=C(N=Cc1cccc2ccccc12)Nc1ccc2c3c(cccc13)CC2` [Example 10, N-(5-Acenaphthyl)-N′-[(1-naphthyl)-methylene]guanidine.CH3SO3H], in series [4], the “% Inhibition of ^3H-Glu Rel @ 1 μM (*veratridine-induced glutamate release assay)” value is given as 24* % and the “% Inhibition of ^3H-Glu Rel @ 3 μM (*veratridine-induced glutamate release assay)” value is reported as 71* %.

Turning to `CCCCc1ccc(NC(=N)N(C)c2ccc(OCc3ccccc3)cc2)cc1.CS(=O)(=O)O` [Example 110, N-(4-Benzyloxyphenyl)-N-methyl-N′-(4-butylphenyl)guanidine.mesylate], the “Audiogenic Response % Inhib.” value in series [1] (20 mg/kg intraperitoneally) came to 42.3%; in series [1] (40 mg/kg intraperitoneally), 92.5%. For the same compound, in series [3], the “% Inhibition of ^3H-Glu Rel @ 0.3 μM” value was found to be 77%.

As to `CC(C)(C)c1ccc(CN(C(=N)N)c2ccc3c(c2)Cc2ccccc2-3)cc1` [Example 22, N-(2-Fluorenyl)-N-(4-tert-butylbenzyl)guanidine.HCl], the IC50 in series [2] (setting [5]) came out at 500 nM.

`CC(C)(C)c1ccc(CN(C(=N)N)c2ccc(C3CCCCC3)cc2)cc1` [Example 21, N-(4-Cyclohexylphenyl)-N-(4-tert-butylbenzyl)guanidine.HCl]: the 50% inhibitory concentration (IC50) in series [2] (setting [5]) came to 1900 nM.

For `CC(C)(C)c1ccc(CN(C(=N)N)c2cccc(OC(F)(F)F)c2)cc1.Cl` [Example 27, N-(3-Trifluoromethoxyphenyl)-N-(4-tert-butylbenzyl)guanidine.HCl], in series [2] (setting [5]), the IC50 was 1200 nM. Further, the “% Inhibition of ^3H-Glu Rel @ 1 μM” value in series [3] worked out at 24%.

For `Cl.N=C(Nc1ccc(OCc2ccccc2)cc1)Nc1cccc(OCc2ccccc2)c1` [Example 42, N-(3-Benzyloxyphenyl)-N′-(4-benzyloxyphenyl)guanidine.HCl], the IC50 in series [2] (setting [5]) amounted to 700 nM. In series [3], the “% Inhibition of ^3H-Glu Rel @ 0.3 μM” value was found to be 54% and the “% Inhibition of ^3H-Glu Rel @ 1 μM” value stood at 90%. In series [4], the “% Inhibition of ^3H-Glu Rel @ 3 μM (*veratridine-induced glutamate release assay)” value was 60* %.

Consider `CCC(C)c1ccc(N(C)C(=N)N(C)c2ccc(C(C)CC)cc2)cc1` (stereo not drawn) (as salt: HCl) [Example 6], for which the melting point is 65 to 66 °C.

Consider `N=C(Nc1ccc2c(c1)Cc1ccccc1-2)Nc1ccc2c(c1)Cc1ccccc1-2` [Example 12, N,N′-Bis(2-fluorenyl)guanidine.HBr], for which the IC50 in series [2] (setting [5]) amounted to 1500 nM.

As to `CCC(C)c1ccc(N(Cc2ccc(C(C)(C)C)cc2)C(=N)NN2CCSCC2)cc1.Cl` (stereo not drawn) [Example 73, N-(4-sec-Butylphenyl)-N-(4-t-butylbenzyl)-N′-(4-thiomorpholinyl)guanidine.HCl], the entries for the “Audiogenic Response % Inhib.” value in series [1] (20 mg/kg intraperitoneally) and in series [1] (40 mg/kg intraperitoneally) were 23% and 89%, respectively. Also, in series [3], the “% Inhibition of ^3H-Glu Rel @ 1 μM” value is reported as 59%.

In the case of `N=C(Nc1ccc(OCc2ccccc2)cc1)Nc1ccc(Oc2ccccc2)cc1` [N-(4-benzyloxyphenyl)-N′-(4-phenoxyphenyl)guanidine], the figures for the “Audiogenic Response % Inhib.” value in series [1] (20 mg/kg intraperitoneally) and in series [1] (40 mg/kg intraperitoneally) were 16% and 93%, respectively.

Regarding `Cl.N=C(NCCCc1ccccc1)Nc1ccc2c3c(cccc13)CC2` [Example 43, N-(5-Acenaphthyl)-N′-(3-phenylpropyl)guanidine.HCl], in series [3], the “% Inhibition of ^3H-Glu Rel @ 3 μM” value is 60%. In addition, the “% Inhibition of ^3H-Glu Rel @ 1 μM (*veratridine-induced glutamate release assay)” value in series [4] is reported as 43* %.

As to `CCC(C)c1ccc(NC(=N)N(C)c2ccc(C(C)CC)cc2)cc1.Cl` (stereo not drawn) [Example 5, N,N′-bis(4-sec-Butylphenyl)-N-methyl guanidine.HCl], the “% Inhibition of ^3H-Glu Rel @ 1 μM (*veratridine-induced glutamate release assay)” value in series [4] is 68* %.

As for `CC(C)(C)c1ccc(NC(=N)Nc2cccc(OCc3ccccc3)c2)cc1.CS(=O)(=O)O` [Example 108, N-(3-Benzyloxy)phenyl-N′-(4-tert-butylphenyl)guanidine.mesylate], the “Audiogenic Response % Inhib.” value in series [1] (40 mg/kg intraperitoneally) was 80%. Moreover, the “% Inhibition of ^3H-Glu Rel @ 0.3 μM” value in series [3] is 49%.

Turning to `CC(C)(C)c1ccc(CN(C(=N)N)c2cccc(I)c2)cc1` [Example 48, N-(3-Iodophenyl)-N-(4-tert-butylbenzyl)guanidine.HCl], the IC50 in series [2] was determined as 400 nM. The “% Inhibition of ^3H-Glu Rel @ 1 μM (*veratridine-induced glutamate release assay)” value in series [4] is 23* %.

`CCC(C)c1ccc(N(C/C=C/c2ccccc2)C(=N)N)cc1.Cl` (stereo not drawn) [Example 23, N-(4-sec-Butylphenyl)-N-(trans-cinnamyl)guanidine.HCl]: the “% Inhibition of ^3H-Glu Rel @ 3 μM (*veratridine-induced glutamate release assay)” value in series [4] is recorded as 33* %.

`CCCCc1ccc(NC(=N)Nc2ccc(OCc3ccccc3)cc2)cc1.Cl` [Example 104, N-(4-Benzyloxyphenyl)-N′-(4-butylphenyl)guanidine.HCl]: the figures for the “Audiogenic Response % Inhib.” value in series [1] (20 mg/kg intraperitoneally) and in series [1] (40 mg/kg intraperitoneally) were 40% and 90%, respectively. Further, the “% Inhibition of ^3H-Glu Rel @ 0.3 μM” value in series [3] is listed as 76%.

Turning to `CC(C)(C)c1ccc(NC(=N)Nc2ccc(Cl)c(Cl)c2Cl)cc1.Cl` [Example 14, N-(4-tert-Butylphenyl)-N′-(2,3,4-trichlorophenyl)guanidine.HCl], the IC50 in series [2] (setting [5]) came out at 1800 nM. Further, the “% Inhibition of ^3H-Glu Rel @ 3 μM” value in series [3] worked out at 63%.

Take `CCCCOc1ccc(N(Cc2ccc(C(C)(C)C)cc2)C(=N)N)cc1.Cl` [Example 24, N-(4-n-Butoxyphenyl)-N-(4-tert-butylbenzyl)guanidine.HCl]: the IC50 in series [2] (setting [5]) came out at 1800 nM. Moreover, the “% Inhibition of ^3H-Glu Rel @ 1 μM (*veratridine-induced glutamate release assay)” value in series [4] is 62* %.

With `CC(C)(C)c1ccc(CN(C(=N)N)c2ccc3c(c2)CCC3)cc1` [Example 26, N-(5-Indanyl)-N-(4-tert-butylbenzyl)guanidine.HCl], the IC50 in series [2] (setting [5]) turned out to be 700 nM.

In the case of `CCCCc1ccc(NC(=N)Nc2ccc(CCCC)cc2)cc1.CS(=O)(=O)O` [Example 37, N,N′-Bis(4-n-butylphenyl)guanidine.mesylate], the “Audiogenic Response % Inhib.” value in series [1] (25 mg/kg intraperitoneally) is 82%. The “Audiogenic Response % Inhib.” value in series [1] (40 mg/kg intraperitoneally) was 92%. Further, in series [3], the “% Inhibition of ^3H-Glu Rel @ 0.3 μM” value is reported as 57% and the “% Inhibition of ^3H-Glu Rel @ 1 μM” value is reported as 100%.

As to “N-(5-Acenaphthyl)-N′-(indolinyl)guanidine.mesylate [Example 29]”, the “Audiogenic Response % Inhib.” value in series [1] (20 mg/kg intraperitoneally) is on record as 42%; in series [1] (40 mg/kg intraperitoneally) it was 81%.

In the case of `CC(C)(C)c1ccc(CN(C(=N)N)c2ccc(Cl)c3ccccc23)cc1` [Example 49, N-(4-Chloro-1-naphthyl)-N-(4-tert-benzyl)guanidine.HCl], the IC50 in series [2] was 2200 nM. For the same compound, the “% Inhibition of ^3H-Glu Rel @ 1 μM (*veratridine-induced glutamate release assay)” value in series [4] is on record as 32* %.

In series [2], `CCC(C)c1ccc(N2CCCN(c3ccc(C(C)CC)cc3)C2=N)cc1` (stereo not drawn) [Example 8, N,N′-Bis-(4-sec-butylphenyl)-2-iminopyrimidazolidine.HBr] came in with an IC50 of 200 nM. For the same compound, the “Audiogenic Response % Inhib.” value is 41% in series [1] (2 mg/kg intraperitoneally) and 75% in series [1] (4 mg/kg intraperitoneally). Moreover, the “% Inhibition of ^3H-Glu Rel @ 3 μM” value in series [3] was determined as 50%.

For the compound “N-(4-sec-Butylphenyl)-N-(4-t-butylbenzyl)-N′-pyrrolidinylguanidine.HCl [Example 72]”, the figures for the “Audiogenic Response % Inhib.” value in series [1] (20 mg/kg intraperitoneally) and in series [1] (40 mg/kg intraperitoneally) were 52% and 81%, respectively. In addition, the “% Inhibition of ^3H-Glu Rel @ 0.3 μM” value in series [3] came to 48%.

On to `CC(C)(C)c1ccc(CN(C(=N)NN2CCOCC2)c2ccc(OCc3ccccc3)cc2)cc1.Cl` [Example 79, N-(4-Benzyloxyphenyl)-N-(4-tert-butylbenzyl)-N′-(4-morpholinyl)guanidine.HCl], for which the “Audiogenic Response % Inhib.” value stood at 41% in series [1] (20 mg/kg intraperitoneally) and 68% in series [1] (40 mg/kg intraperitoneally). The “% Inhibition of ^3H-Glu Rel @ 0.3 μM” value in series [3] was 77%.

With `CC(C)c1ccc(NC(=N)Nc2ccc3ccccc3c2)cc1` [Example 11, N-(2-Naphthyl)-N′-(4-isopropylphenyl)guanidine.HCl], in series [2] (setting [5]), the IC50 is 900 nM.

Turning to `CC(C)c1ccc(CN(C(=N)N)c2ccc(C3CCCCC3)cc2)cc1` [Example 20, N-(4-Cyclohexylphenyl)-N-(4-isopropylbenzyl)guanidine.HCl], the IC50 in series [2] (setting [5]) is 900 nM.
